Source: patent publication US20240279281A1, “Peptide Inhibitors of Interleukin-23 Receptor” (Janssen Pharmaceutica NV, priority 2023, published 2024)
Starred links: 1 amine or outer side, 2 acyl side, 3 side chain; linkers in the order of their positions; H or OH if unused. Positions of bridges follow the written chain, without caps; N, C: chain ends. Non-standard residues stand in square brackets, D forms with d. Residues, ends and D or L forms follow the SMILES beside them. *: point of attachment. Trp(7-(3-AcNH-Ph)) = CC(=O)Nc1cccc(-c2cccc3c(C[C@H](N)C(=O)O)c[nH]c23)c1; Me3N+(CH2)2O(CH2)2O(CH2)2CO = C[N+](C)(C)CCOCCOCCC(=O)*; 2Nal(6-OH) = N[C@@H](Cc1ccc2cc(O)ccc2c1)C(=O)O; Trp(7-Me) = Cc1cccc2c(C[C@H](N)C(=O)O)c[nH]c12; Abu(4-yl) = O=C([C@H](CC[*:3])N[*:1])[*:2]; dLys(Me3) = C[N+](C)(C)CCCC[C@@H](N)C(=O)O; 3Pal(5-Me) = Cc1cncc(C[C@H](N)C(=O)O)c1; AEF = NCCOc1ccc(C[C@H](N)C(=O)O)cc1; 3Pal = N[C@@H](Cc1cccnc1)C(=O)O; Ethyl(2-guanidino) = N=C(N)NCC*; Aad = N[C@@H](CCCC(=O)O)C(=O)O; Lys(Me) = CNCCCC[C@H](N)C(=O)O; Pen = CC(C)(S)[C@H](N)C(=O)O; Thp = NC1(C(=O)O)CCOCC1; Ava = NCCCCC(=O)O; Sar = CNCC(=O)O

Assays:
[1] = target: T1, IL-23-stimulated phosphorylated STAT3 in peripheral blood mononuclear cells (PBMCs) (Homo sapiens, UniProt Q5VWK5); assay: PBMC pSTAT3 Assay; format: cell-based; settings: PBMCs from healthy donors, IL-23 5 ng/mL, 30 minutes, read-out: PBMC pSTAT3 IC50
T1 sequence (Q5VWK5 24-629): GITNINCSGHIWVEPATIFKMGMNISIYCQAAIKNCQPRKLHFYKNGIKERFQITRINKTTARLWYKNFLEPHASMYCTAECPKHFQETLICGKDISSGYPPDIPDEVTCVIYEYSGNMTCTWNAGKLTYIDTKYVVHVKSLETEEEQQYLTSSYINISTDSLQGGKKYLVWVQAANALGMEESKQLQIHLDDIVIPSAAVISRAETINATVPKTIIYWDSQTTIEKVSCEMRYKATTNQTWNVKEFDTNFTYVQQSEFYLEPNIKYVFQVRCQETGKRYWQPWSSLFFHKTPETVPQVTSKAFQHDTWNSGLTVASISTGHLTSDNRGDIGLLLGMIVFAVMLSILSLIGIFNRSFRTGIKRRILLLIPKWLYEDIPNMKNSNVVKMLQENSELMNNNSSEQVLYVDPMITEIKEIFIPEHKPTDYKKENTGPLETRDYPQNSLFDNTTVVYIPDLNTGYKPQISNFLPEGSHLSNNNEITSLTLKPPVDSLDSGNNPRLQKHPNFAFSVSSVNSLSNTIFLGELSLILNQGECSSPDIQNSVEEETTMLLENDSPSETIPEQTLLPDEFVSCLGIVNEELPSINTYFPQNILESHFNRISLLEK
Protocol: Cryopreserved peripheral blood mononuclear cells (PBMCs) from healthy donors were thawed and washed twice in ImmunoCult-XF T cell expansion medium (XF-TCEM) supplemented with CTL anti-aggregate wash. The cells were counted, resuspended at 2-6×10^5 cells per mL XF-TCEM supplemented with penicillin/streptomycin and 100 ng/mL IL-1β (BioLegend, 579404), and cultured in tissue culture flasks coated with anti-CD3 (eBioscience, 16-0037-85 or BD Pharmingen, 555329) at 37° C. in 5% CO2. On day 4 of culture, PBMCs were collected, washed twice in RPMI-1640 supplemented with 0.1% BSA (RPMI-BSA), and incubated in RPMI-BSA in upright tissue culture flasks for ˜4 hours at 37° C. in 5% CO2. Following this ‘starvation,’ a total of 6×10^4 cells in 30 μL RPMI-BSA was transferred into each well of a 384-well plate pre-spotted with peptide or DMSO. The cells were incubated for 30 minutes prior to the addition of IL-23 at a final concentration of 5 ng/mL. The cells were stimulated with cytokine for 30 minutes at 37° C. in 5% CO2, transferred onto ice for 10 minutes, and lysed. Cell lysates were stored at −80° C. until phosphorylated STAT3 was measured using the phospho-STAT panel kit (Meso Scale Discovery, K15202D).

[2] = target: T2, IL-23R (Homo sapiens, UniProt Q5VWK5); assay: IL23R Reporter Assay; format: cell-based; settings: HEK293 cells containing IL-23R, IL-12Rβ1 and STAT-inducible luciferase reporter; 10 ng/mL IL-23; 5 h; read-out: IC50
T2 construct: host or cells: HEK293
T2 sequence (Q5VWK5 24-629): T1 sequence (Q5VWK5 24-629)
Protocol: Compounds were serially diluted in 100% (v/v) DMSO) and plated using an Echo acoustic dispenser (Labcyte) into 1536-well non-treated black assay plates (Corning #9146). […] After 5 h at 37° C., 5% CO2, 95% relative humidity, cells were placed at 20° C. and treated with BioGlo reagent (Promega) according to the Manufacturer's instructions. Luminescence was measured on a Pherastar FSX (BMG LabTech).

[3] = from Ac-dArg-Pen-Asn-Thr-7MeTrp-Lys(Ac)-Pen-AEF-6Br2Nal-THP-Glu-Asn-THP-NH2; disulfide bond; 20-membered ring; I2/MeOH; 20% MeCN/H2O; 0.977 mM

IC50 [1] [nM]	IC50 [2] [nM]	SMILES	ring closure, yield after HPLC [3] [%]
< 0.01	< 10	CC(=O)NCCCC[C@@H]1NC(=O)[C@H](Cc2c[nH]c3c(-c4cccc(NC(C)=O)c4)cccc23)NC(=O)[C@H]([C@@H](C)O)NC(=O)[C@H](CC(N)=O)NC(=O)[C@@H](NC(=O)[C@@H](CCCC[N+](C)(C)C)NC(C)=O)C(C)(C)SSC(C)(C)[C@@H](C(=O)N[C@@H](Cc2ccc(OCCNC(=N)N)cc2)C(=O)N[C@@H](Cc2ccc3cc(O)ccc3c2)C(=O)NC2(C(=O)N[C@@H](CCC(=O)O)C(=O)N[C@@H](CC(N)=O)C(=O)N[C@@H](Cc3cncc(C)c3)C(=O)N(C)CC(N)=O)CCOCC2)NC1=O [compound 11, MeCO-k(Me)3-Pen(3)-N-T-7(3NAcPh)W-K(Ac)-Pen(3)-AEF(G)-6OH2Nal-THP-E-N-5MePyridinAla-Sar-CONH2] (Ac-[dLys(Me3)][Pen]NT[Trp(7-(3-AcNH-Ph))]K(Ac)[Pen]Y(Ethyl(2-guanidino))[2Nal(6-OH)][Thp]EN[3Pal(5-Me)][Sar]-NH2; disulfide 2-7)	
< 0.01	< 10	CC(=O)N(C)CCCC[C@@H]1NC(=O)[C@H](Cc2c[nH]c3c(C)cccc23)NC(=O)[C@H]([C@@H](C)O)NC(=O)[C@H](CC(=O)N(C)C)NC(=O)[C@H]2NC(=O)[C@H](NC(=O)CCOCCOCC[N+](C)(C)C)CCCCNC(=O)CCC[C@@H](C(=O)N[C@@H](CC(N)=O)C(=O)N[C@@H](Cc3cccnc3)C(=O)N(C)CC(=O)N(C)C)NC(=O)C3(CCOCC3)NC(=O)[C@H](Cc3ccc4cc(O)ccc4c3)NC(=O)[C@H](Cc3ccc(OCCN)cc3)NC(=O)[C@@H](NC1=O)C(C)(C)SSC2(C)C [compound 373, cPEG3aCO-k(2)-Pen(3)-N(N(Me)2)-T-7MeW-K(NMeAc)-Pen(3)-AEF-6OH2Nal-THP-hE(2)-N-3Pya-Sar-CON(Me)2] ({Me3N+(CH2)2O(CH2)2O(CH2)2CO}-[dK][Pen]D(NMe2)T[Trp(7-Me)][Lys(Me)](Ac)[Pen][AEF][2Nal(6-OH)][Thp][Aad]N[3Pal][Sar]-NMe2; lactam 1-11; disulfide 2-7)	
0.01 to 0.1	< 10	CC(=O)NCCCC[C@@H]1NC(=O)[C@H](Cc2c[nH]c3c(-c4cccc(NC(C)=O)c4)cccc23)NC(=O)[C@H]([C@@H](C)O)NC(=O)[C@H](CC(N)=O)NC(=O)[C@@H](NC(=O)[C@@H](CCCC[N+](C)(C)C)NC(C)=O)C(C)(C)SSC(C)(C)[C@@H](C(=O)N[C@@H](Cc2ccc(OCCN)cc2)C(=O)N[C@@H](Cc2ccc3cc(O)ccc3c2)C(=O)NC2(C(=O)N[C@@H](CCC(=O)O)C(=O)N[C@@H](CC(N)=O)C(=O)N[C@@H](Cc3cccnc3)C(=O)N(C)CC(N)=O)CCOCC2)NC1=O [compound 68, MeCO-k(Me)3-Pen(3)-N-T-7(3NAcPh)W-K(Ac)-Pen(3)-AEF-6OH2Nal-THP-E-N-3Pya-Sar-CONH2] (Ac-[dLys(Me3)][Pen]NT[Trp(7-(3-AcNH-Ph))]K(Ac)[Pen][AEF][2Nal(6-OH)][Thp]EN[3Pal][Sar]-NH2; disulfide 2-7)	

Second part, the compound before the results:

SMILES	IC50 [1] [nM]	IC50 [2] [nM]	ring closure, yield after HPLC [3] [%]
CC(=O)NCCCC[C@@H]1NC(=O)[C@H](Cc2c[nH]c3c(C)cccc23)NC(=O)[C@H]([C@@H](C)O)NC(=O)[C@@H]2CCCCNCCOc3ccc(cc3)C[C@@H](C(=O)N[C@@H](Cc3ccc4cc(O)ccc4c3)C(=O)NC3(C(=O)N[C@@H](CCCCNC(C)=O)C(=O)N[C@@H](CC(N)=O)C(=O)N[C@@H](Cc4cccnc4)C(=O)N(C)CC(N)=O)CCOCC3)NC(=O)[C@@H](NC1=O)C(C)(C)SSC(C)(C)[C@H](NC(=O)CCCCC[N+](C)(C)C)C(=O)N2 [compound 112, 5cpaCO-Pen(3)-K(5)-T-7MeW-K(Ac)-Pen(3)-AEF(5)-6OH2Nal-THP-K(Ac)-N-3Pya-Sar-CONH2]	< 0.01	< 10	
C[C@@H](O)[C@@H]1NC(=O)[C@H](CC(N)=O)NC(=O)[C@@H]2CCSC[C@H](NC(=O)[C@H](CCC(N)=O)NC(=O)[C@H](Cc3c[nH]c4ccccc34)NC1=O)C(=O)N[C@@H](Cc1ccc(OCCN)cc1)C(=O)N[C@@H](Cc1ccc3cc(O)ccc3c1)C(=O)NC1(CCOCC1)C(=O)N[C@H](C(=O)N[C@@H](CC(N)=O)C(=O)N[C@@H](Cc1cccnc1)C(=O)N(C)CC(N)=O)CCC(=O)NCCCCC(=O)N2 [compound 172] ([Ava][Abu(4-yl)]NTWQC[AEF][2Nal(6-OH)][Thp]EN[3Pal][Sar]-NH2; thioether 2-7; lactam N-11)	< 0.01	< 10	
CC(=O)NCCCC[C@@H]1NC(=O)[C@H](Cc2c[nH]c3c(C)cccc23)NC(=O)[C@H]([C@@H](C)O)NC(=O)[C@H](CC(N)=O)NC(=O)[C@@H](NC(=O)[C@@H](CCCNC(=N)N)NC(C)=O)C(C)(C)SSC(C)(C)[C@@H](C(=O)N[C@@H](Cc2ccc(OCCN)cc2)C(=O)N[C@@H](Cc2ccc3cc(Br)ccc3c2)C(=O)NC2(C(=O)N[C@@H](CCC(=O)O)C(=O)N[C@@H](CC(N)=O)C(=O)NC3(C(N)=O)CCOCC3)CCOCC2)NC1=O			34.1
